From patent US10246456B2, “IRAK4 inhibiting agents” (BIOGEN MA INC., priority 2014, dated 2019)

How the values were obtained:
[1] = molecular target: IRAK4 (Homo sapiens (Human), UniProt Q9NWZ3); experiment: IRAK-4 AlphaScreen biochemical kinase assay; conditions: 1 nM IRAK4, 1 mM ATP, 3.5 h at RT
Outline: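 AlphaScreen read-out: streptavidin beads bind the biotinylated peptide and protein A beads bind the anti-phosphothreonine antibody, so energy transfer reports phosphorylation of the peptide. The kinase is human IRAK-4.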

[2] = system: IL-6 in A549 cells; experiment: Cell-based IL-6 ELISA assay in IL-1beta stimulated A549 cells; conditions: 2 ng/ml human IL-1beta overnight
Outline: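 A549 cells (2.5×10^4/well, DMEM/10% FBS) pretreated 30 min at 37 C with compound, 10-point serial dilution from 10 uM, then stimulated overnight with 2 ng/ml human IL-1beta. Secreted IL-6 in supernatant quantified by human IL-6 ELISA.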

Chain of IRAK4 (Q9NWZ3 whole entry, species assumed): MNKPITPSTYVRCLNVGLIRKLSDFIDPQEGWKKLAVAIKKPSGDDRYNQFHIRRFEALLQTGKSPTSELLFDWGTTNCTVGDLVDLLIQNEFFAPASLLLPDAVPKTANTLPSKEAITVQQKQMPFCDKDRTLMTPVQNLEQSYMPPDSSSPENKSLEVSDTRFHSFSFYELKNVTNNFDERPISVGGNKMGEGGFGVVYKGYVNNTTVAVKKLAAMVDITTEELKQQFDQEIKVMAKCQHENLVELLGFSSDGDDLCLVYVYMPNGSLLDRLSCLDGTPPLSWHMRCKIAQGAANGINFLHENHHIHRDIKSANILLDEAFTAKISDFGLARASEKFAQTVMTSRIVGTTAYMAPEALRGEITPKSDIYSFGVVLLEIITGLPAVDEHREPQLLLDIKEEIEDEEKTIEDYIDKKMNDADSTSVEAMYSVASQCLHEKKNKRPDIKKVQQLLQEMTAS

Compound | IC50 [1] [nM] | EC50 [2] [nM]
N[C@H](c1cccc(-c2ccc3cnn(-c4cccc(CO)n4)c3c2)n1)C1CCC1 [Example 422, (S)-(6-(6-(6-(amino(cyclobutyl)methyl)pyridin-2-yl)-1H-indazol-1-yl)pyridin-2-yl)methanol] | < 100 | ≤ 1000
CCC[C@H](N)c1cccc(-c2cc(C3CCOCC3)c3cnn(-c4cccc(CO)n4)c3c2)n1 [Example 425, (S)-(6-(6-(6-(1-aminobutyl)pyridin-2-yl)-4-(tetrahydro-2H-pyran-4-yl)-1H-indazol-1-yl)pyridin-2-yl)methanol] | < 100 | ≤ 1000
N[C@@H](CCC(F)(F)F)c1cccc(-c2ccc3cnn(-c4cccc(CO)n4)c3c2)n1 [Example 427, (S)-(6-(6-(6-(1-amino-4,4,4-trifluorobutyl)pyridin-2-yl)-1H-indazol-1-yl)pyridin-2-yl)methanol] | < 100 | ≤ 1000
C=C(C)C[C@H](N)c1cccc(-c2ccc3cnn(-c4cccc(CO)n4)c3c2)n1 [Example 436, (S)-(6-(6-(6-(1-amino-3-methylbut-3-en-1-yl)pyridin-2-yl)-1H-indazol-1-yl)pyridin-2-yl)methanol] | < 100 | ≤ 1000
CC(F)(F)C[C@H](N)c1cccc(-c2ccc3cnn(-c4cccc(CO)n4)c3c2)n1 [Example 437, (S)-(6-(6-(6-(1-amino-3,3-difluorobutyl)pyridin-2-yl)-1H-indazol-1-yl)pyridin-2-yl)methanol] | < 100 | ≤ 1000
CCOc1cc(-c2cccc([C@@H](N)CC(C)(F)F)n2)cc2c1cnn2-c1cccc(CO)n1 [Example 438, (S)-(6-(6-(6-(1-amino-3,3-difluorobutyl)pyridin-2-yl)-4-ethoxy-1H-indazol-1-yl)pyridin-2-yl)methanol] | < 100 | ≤ 1000
CCOc1cc(-c2cccc([C@H](N)c3ccccc3)n2)cc2c1cnn2-c1cccc(CO)n1 [Example 439, (R)-(6-(6-(6-(amino(phenyl)methyl)pyridin-2-yl)-4-ethoxy-1H-indazol-1-yl)pyridin-2-yl)methanol] | < 100 | ≤ 1000
CCOc1cc(-c2cccc([C@@H](N)[C@@H](F)CC)n2)cc2c1cnn2-c1cccc(CO)n1 [Example 442, (6-(6-(6-((1R,2S)-1-amino-2-fluorobutyl)pyridin-2-yl)-4-ethoxy-1H-indazol-1-yl)pyridin-2-yl)methanol] | < 100 | ≤ 1000
CCOc1cc(-c2cccc([C@@H](N)[C@H](F)CC)n2)cc2c1cnn2-c1cccc(CO)n1 [Example 443, (6-(6-(6-((1R,2R)-1-amino-2-fluorobutyl)pyridin-2-yl)-4-ethoxy-1H-indazol-1-yl)pyridin-2-yl)methanol] | < 100 | ≤ 1000
CCOc1cc(-c2cccc([C@@H](N)[C@H](CC)OC)n2)cc2c1cnn2-c1cccc(CO)n1 [Example 444, (6-(6-(6-((1R,2S)-1-amino-2-methoxybutyl)pyridin-2-yl)-4-ethoxy-1H-indazol-1-yl)pyridin-2-yl)methanol] | < 100 | 1000 to 10000
CCOc1cc(-c2cccc([C@@H](N)[C@@H](CC)OC)n2)cc2c1cnn2-c1cccc(CO)n1 [Example 445, (6-(6-(6-((1R,2R)-1-amino-2-methoxybutyl)pyridin-2-yl)-4-ethoxy-1H-indazol-1-yl)pyridin-2-yl)methanol] | < 100 | ≤ 1000
NC(c1cccc(-c2ccc3cnn(-c4cccc(CO)n4)c3c2)n1)C1COC1 (stereo not shown) [Example 446, (6-(6-(6-(amino(oxetan-3-yl)methyl)pyridin-2-yl)-1H-indazol-1-yl)pyridin-2-yl)methanol] | < 100 | ≤ 1000
CCOc1cc(-c2cccc(C(N)C3COC3)n2)cc2c1cnn2-c1cccc(CO)n1 (stereo not shown) [Example 447, (6-(6-(6-(amino(oxetan-3-yl)methyl)pyridin-2-yl)-4-ethoxy-1H-indazol-1-yl)pyridin-2-yl)methanol] | < 100 | ≤ 1000
CC1(CC(N)c2cccc(-c3ccc4cnn(-c5cccc(CO)n5)c4c3)n2)COC1 (stereo not shown) [Example 448, (6-(6-(6-(1-amino-2-(3-methyloxetan-3-yl)ethyl)pyridin-2-yl)-1H-indazol-1-yl)pyridin-2-yl)methanol] | < 100 | 1000 to 10000
CCC[C@H](N)c1cccc(-c2ccc3cnn(-c4cccc(C=O)n4)c3c2)n1 [Example 450, (S)-6-(6-(6-(1-aminobutyl)pyridin-2-yl)-1H-indazol-1-yl)picolinaldehyde] | < 100 | 1000 to 10000
CCC[C@H](N)c1cccc(-c2ccc3cnn(-c4cccc([C@@H](O)C(F)(F)F)n4)c3c2)n1 [Example 451, (R)-1-(6-(6-(6-((S)-1-aminobutyl)pyridin-2-yl)-1H-indazol-1-yl)pyridin-2-yl)-2,2,2-trifluoroethanol] | < 100 | ≤ 1000

Compound | IC50 [1] [nM] | EC50 [2] [nM]
CCC[C@H](N)c1cccc(-c2ccc3cnn(-c4cccc([C@H](O)C(F)(F)F)n4)c3c2)n1 [Example 452, (S)-1-(6-(6-(6-((S)-1-aminobutyl)pyridin-2-yl)-1H-indazol-1-yl)pyridin-2-yl)-2,2,2-trifluoroethanol] | < 100 | 1000 to 10000
CC[C@@H](F)[C@H](N)c1cccc(-c2cc(OCCOC)c3cnn(-c4cccc(CO)n4)c3c2)n1 [Example 453, (6-(6-(6-((1R,2R)-1-amino-2-fluorobutyl)pyridin-2-yl)-4-(2-methoxyethoxy)-1H-indazol-1-yl)pyridin-2-yl)methanol] | < 100 | ≤ 1000
CC[C@H](F)[C@H](N)c1cccc(-c2cc(OCCOC)c3cnn(-c4cccc(CO)n4)c3c2)n1 [Example 454, (6-(6-(6-((1R,2S)-1-amino-2-fluorobutyl)pyridin-2-yl)-4-(2-methoxyethoxy)-1H-indazol-1-yl)pyridin-2-yl)methanol] | < 100 | ≤ 1000
CCC[C@H](N)c1cccc(-c2cc(OCCCOC)c3cnn(-c4cccc(CO)n4)c3c2)n1 [Example 456, (S)-(6-(6-(6-(1-aminobutyl)pyridin-2-yl)-4-(3-methoxypropoxy)-1H-indazol-1-yl)pyridin-2-yl)methanol] | < 100 | ≤ 1000
CC[C@H](N)c1cccc(-c2cc(OCCCOC)c3cnn(-c4cccc(CO)n4)c3c2)n1 [Example 457, (S)-(6-(6-(6-(1-aminopropyl)pyridin-2-yl)-4-(3-methoxypropoxy)-1H-indazol-1-yl)pyridin-2-yl)methanol] | < 100 | ≤ 1000
COCCCOc1cc(-c2cccc([C@H](C)N)n2)cc2c1cnn2-c1cccc(CO)n1 [Example 458, (S)-(6-(6-(6-(1-aminoethyl)pyridin-2-yl)-4-(3-methoxypropoxy)-1H-indazol-1-yl)pyridin-2-yl)methanol] | < 100 | ≤ 1000
CCC[C@H](N)c1cccc(-c2cc(OC)c3cnn(-c4cccc(CO)n4)c3c2)n1 [Example 463, (S)-(6-(6-(6-(1-aminobutyl)pyridin-2-yl)-4-methoxy-1H-indazol-1-yl)pyridin-2-yl)methanol] | < 100 | ≤ 1000
CCC[C@H](N)c1cccc(-c2cc(OCC)c3cnn(-c4cccc(CO)n4)c3c2)n1 [Example 464, (S)-(6-(6-(6-(1-aminobutyl)pyridin-2-yl)-4-ethoxy-1H-indazol-1-yl)pyridin-2-yl)methanol] | < 100 | ≤ 1000
CC[C@H](N)c1cccc(-c2cc(F)c3cnn(-c4cccc(CO)n4)c3c2)n1 [Example 473, (S)-(6-(6-(6-(1-aminopropyl)pyridin-2-yl)-4-fluoro-1H-indazol-1-yl)pyridin-2-yl)methanol] | < 100 | ≤ 1000
CCC[C@H](N)c1cccc(-c2cc(F)c3cnn(-c4cccc(CO)n4)c3c2)n1 [Example 474, (6-{6-[6-((S)-1-Amino-butyl)-pyridin-2-yl]-4-fluoro-indazol-1-yl}-pyridin-2-yl)-methanol] | < 100 | ≤ 1000
CCC[C@H](N)c1cccc(-c2cc(OCCOC)c3cnn(-c4cccc(CO)n4)c3c2)n1 [Example 476, (S)-(6-(6-(6-(1-aminobutyl)pyridin-2-yl)-4-(2-methoxyethoxy)-1H-indazol-1-yl)pyridin-2-yl)methanol] | < 100 | ≤ 1000
CCC[C@H](N)c1cccc(-c2cc(OC(C)C)c3cnn(-c4cccc(CO)n4)c3c2)n1 [Example 483, (6-{6-[6-((S)-1-Amino-butyl)-pyridin-2-yl]-4-isopropoxy-indazol-1-yl}-pyridin-2-yl)-methanol] | < 100 | ≤ 1000
CC[C@H](N)c1cccc(-c2cc(NC)c3cnn(-c4cccc(CO)n4)c3c2)n1 [Example 485, (S)-(6-(6-(6-(1-aminopropyl)pyridin-2-yl)-4-(methylamino)-1H-indazol-1-yl)pyridin-2-yl)methanol] | < 100 | ≤ 1000
CCC[C@H](N)c1cccc(-c2ccc3cnn(-c4nccc(C(F)F)n4)c3c2)n1 [Example 486, (S)-1-(6-(1-(4-(difluoromethyl)pyrimidin-2-yl)-1H-indazol-6-yl)pyridin-2-yl)butan-1-amine] | < 100 | ≤ 1000
CCC[C@H](N)c1cccc(-c2cc(CF)c3cnn(-c4cccc(CO)n4)c3c2)n1 [Example 487, (S)-(6-(6-(6-(l-aminobutyl)pyridin-2-yl)-4-(fluoromethyl)-1H-indazol-1-yl)pyridin-2-yl)methanol] | < 100 | ≤ 1000
CCC[C@H](N)c1cccc(-c2cc(C3=CCN(C(C)=O)CC3)c3cnn(-c4cccc(CO)n4)c3c2)n1 [Example 488, (S)-1-(4-(6-(6-(1-aminobutyl)pyridin-2-yl)-1-(6-(hydroxymethyl)pyridin-2-yl)-1H-indazol-4-yl)-5,6-dihydropyridin-1(2H)-yl)ethanone] | < 100 | ≤ 1000
